From US8633209B2, “Hydrobromide salts of a pyrazolylaminoquinazoline” (Ambit Biosciences Corporation, priority 2010, dated 2014)
“Also recorded” adds a separate entry of the source. Like-named read-outs stand apart in the source and are kept apart here.

Assays:
Assay type in all cases: physicochemical
[1] = Heat and vapor stress (vacuum drying, RH jar) with XRPD analysis of the resulting solid form; conditions: for XRPD Results after vapor stress: ~94% RH vapor stress at RT for ~3 days; for Result of vacuum drying (Additional Information): temperature and time not stated in Table V
Description: X-ray powder diffraction analyses were performed using an Inel XRG-3000 diffractometer equipped with a CPS (Curved Position Sensitive) detector with a 2θ range of 120°. Real time data were collected using CuKα radiation at a resolution of 0.03° 2θ. The tube voltage and amperage were set to 40 kV and 30 mA, respectively. The monochromator slit was set at 5 mm by 160 μm. […] Samples were prepared into thin-walled glass capillaries for analysis. Each capillary was mounted onto a goniometer head that was motorized to permit spinning of the capillary during data acquisition. The samples were analyzed for 300 seconds. Instrument calibration was performed using a silicon reference standard.
Samples were placed in a RH jar of specified relative humidity at ambient temperature or elevated temperature for a given amount of time. Samples were placed in heating/vacuum oven at specified temperature for thermal stressing.

[2] = Solubility of the HBr salt of Form A in selected solvents, estimated by solvent addition under ambient conditions
Description: The solubility of the HBr salt of Form A in selected solvents was estimated by solvent addition under ambient conditions to provide preliminary information for the polymorph screen. […] This material is sparingly soluble in methanol, methanol/chloroform (1:1), and methanol/tetrahydrofuran (˜14-20 mg/mL).

[3] = Moisture sorption/desorption (VTI SGA-100 Vapor Sorption Analyzer, 5% to 95% RH); conditions: for Hygroscopicity (moisture sorption data are consistent with): 5% to 95% RH; for Weight gain upon increase in relative humidity: from ~5% to ~95% RH; for Weight loss upon decrease in relative humidity: from ~95% to ~5% RH
Description: Moisture soption/desorption data were collected on a VTI SGA-100 Vapor Sorption Analyzer. Sorption and desorption data were collected over a range of 5% to 95% relative humidity (RH) at 10% RH intervals under a nitrogen purge. Samples were not dried prior to analysis. Equilibrium criteria used for analysis were less than 0.0100% weight change in 5 min, with a maximum equilibration time of 3 hrs if the weight criterion was not met. Data were not corrected for the initial moisture content of the samples. NaCl and PVP were used as calibration standards.

SMILES: Cc1cc(Nc2nc(C(O)c3ccc(F)cc3)nc3ccccc23)n[nH]1 (centres unmarked) [Disordered Form A, (4-fluorophenyl)(4-(5-methyl-1H-pyrazol-3-ylamino)quinazolin-2-yl)methanol]
- XRPD Results after vapor stress [1]: Disordered A
- XRPD Results after vapor stress ([1]; listed as disordered Form A): remained disordered

SMILES: Cc1cc(Nc2nc(C(O)c3ccc(F)cc3)nc3ccccc23)n[nH]1 (centres unmarked) [Form A, (4-fluorophenyl)(4-(5-methyl-1H-pyrazol-3-ylamino)quinazolin-2-yl)methanol]
- solubility ([2]; DMF/water (1:1), aqueous with cosolvent or surfactant or cyclodextrin, thermodynamic from solid, solvent DMF/water (1:1), read-out: Solubility): 30000 µg/mL
- solubility ([2]; DMF/water (1:2), aqueous with cosolvent or surfactant or cyclodextrin, thermodynamic from solid, solvent DMF/water (1:2), read-out: Solubility): 4000 µg/mL
- solubility ([2]; DMF/water (1:4), aqueous with cosolvent or surfactant or cyclodextrin, thermodynamic from solid, solvent DMF/water (1:4), read-out: Solubility): < 2000 µg/mL
- solubility ([2]; DMF/water (1:9), aqueous with cosolvent or surfactant or cyclodextrin, thermodynamic from solid, solvent DMF/water (1:9), read-out: Solubility): < 2000 µg/mL
- solubility ([2]; MeOH/THF (1:1), organic solvent or mixture, thermodynamic from solid, solvent MeOH/THF (1:1), read-out: Solubility): 14000 to 20000 µg/mL
- solubility ([2]; MeOH/chloroform (1:1), organic solvent or mixture, thermodynamic from solid, solvent MeOH/chloroform (1:1), read-out: Solubility): 14000 to 20000 µg/mL
- solubility ([2]; acetone, organic solvent or mixture, thermodynamic from solid, solvent Acetone, read-out: Solubility): < 2000 µg/mL
- solubility ([2]; acetonitrile, organic solvent or mixture, thermodynamic from solid, solvent ACN, read-out: Solubility): < 2000 µg/mL
- solubility ([2]; chloroform, organic solvent or mixture, thermodynamic from solid, solvent Chloroform, read-out: Solubility): < 2000 µg/mL
- solubility ([2]; dichloromethane, organic solvent or mixture, thermodynamic from solid, solvent DCM, read-out: Solubility): < 2000 µg/mL
- solubility ([2]; dimethylformamide, organic solvent or mixture, thermodynamic from solid, solvent DMF, read-out: Solubility): > 114000 µg/mL
- solubility ([2]; ethanol, organic solvent or mixture, thermodynamic from solid, solvent EtOH, read-out: Solubility): 3000 to 7000 µg/mL
- solubility ([2]; ethyl acetate, organic solvent or mixture, thermodynamic from solid, solvent EtOAc, read-out: Solubility): < 2000 µg/mL
- solubility ([2]; hexafluoroisopropanol, organic solvent or mixture, thermodynamic from solid, solvent HFIPA (hexafluoroisopropanol), read-out: Solubility): > 128000 µg/mL
- solubility ([2]; isopropyl alcohol, organic solvent or mixture, thermodynamic from solid, solvent IPA, read-out: Solubility): < 2000 µg/mL
- solubility ([2]; methanol, organic solvent or mixture, thermodynamic from solid, solvent MeOH, read-out: Solubility): 14000 to 20000 µg/mL
- solubility ([2]; nitromethane, organic solvent or mixture, thermodynamic from solid, solvent Nitromethane, read-out: Solubility): < 2000 µg/mL
- solubility ([2]; solvent ACN): <2000 µg/mL
- solubility ([2]; solvent Acetone): <2000 µg/mL
- solubility ([2]; solvent Chloroform): <2000 µg/mL
- solubility ([2]; solvent DCM): <2000 µg/mL
- solubility ([2]; solvent DMF): >114000 µg/mL
- solubility ([2]; solvent DMF/water (1:4)): <2000 µg/mL
- solubility ([2]; solvent DMF/water (1:9)): <2000 µg/mL
- solubility ([2]; solvent EtOAc): <2000 µg/mL
- solubility ([2]; solvent EtOH): 3000 µg/mL
- solubility ([2]; solvent HFIPA (hexafluoroisopropanol)): >128000 µg/mL
- solubility ([2]; solvent IPA): <2000 µg/mL
- solubility ([2]; solvent MeOH): 18000 µg/mL
- solubility ([2]; solvent MeOH/THF (1:1)): 14000 µg/mL
- solubility ([2]; solvent MeOH/chloroform (1:1)): 16000 µg/mL
- solubility ([2]; solvent Nitromethane): <2000 µg/mL
- solubility ([2]; solvent THF): <2000 µg/mL
- solubility ([2]; solvent Toluene): <2000 µg/mL
- solubility ([2]; solvent Water): <2000 µg/mL
- solubility ([2]; t-butanol/water (3:1), organic solvent or mixture, thermodynamic from solid, solvent t-Butanol/water (3:1), read-out: Solubility): 6000 µg/mL
- solubility ([2]; tetrahydrofuran, organic solvent or mixture, thermodynamic from solid, solvent THF, read-out: Solubility): < 2000 µg/mL
- solubility ([2]; toluene, organic solvent or mixture, thermodynamic from solid, solvent Toluene, read-out: Solubility): < 2000 µg/mL
- solubility ([2]; water, thermodynamic from solid, solvent Water, read-out: Solubility): < 2000 µg/mL
- Hygroscopicity (moisture sorption data are consistent with) [3]: limited hygroscopic material
- Weight loss upon equilibration at ~5% RH [3]: ~0.3 wt %
- Weight gain upon increase in relative humidity [3]: 1.0 wt %
- Weight loss upon decrease in relative humidity [3]: ~1.0 wt %

SMILES: Cc1cc(Nc2nc(C(O)c3ccc(F)cc3)nc3ccccc23)n[nH]1 (centres unmarked) [Form B, (4-fluorophenyl)(4-(5-methyl-1H-pyrazol-3-ylamino)quinazolin-2-yl)methanol]
- Result of vacuum drying (Additional Information) [1]: primarily consistent with Form A
- XRPD Results after vacuum drying ([1]; vacuum at ~60° C. for ~1 day): mixture of Form A with small amount of Form B

SMILES: Cc1cc(Nc2nc(C(O)c3ccc(F)cc3)nc3ccccc23)n[nH]1 (centres unmarked) [Form C, (4-fluorophenyl)(4-(5-methyl-1H-pyrazol-3-ylamino)quinazolin-2-yl)methanol]
- Result of vacuum drying (Additional Information) ([1]; listed as C): Forms A and C.
- XRPD Results after vacuum drying ([1]; vacuum at ~80° C. for ~1 day): mixture of Forms A and C

SMILES: Cc1cc(Nc2nc(C(O)c3ccc(F)cc3)nc3ccccc23)n[nH]1 (centres unmarked) [Form D, (4-fluorophenyl)(4-(5-methyl-1H-pyrazol-3-ylamino)quinazolin-2-yl)methanol]
- Result of vacuum drying (Additional Information) ([1]; listed as D): Form A.
- XRPD Results after vacuum drying ([1]; vacuum at ~40° C. for ~3 days): consistent with Form A

SMILES: Cc1cc(Nc2nc(C(O)c3ccc(F)cc3)nc3ccccc23)n[nH]1 (centres unmarked) [Form E, (4-fluorophenyl)(4-(5-methyl-1H-pyrazol-3-ylamino)quinazolin-2-yl)methanol]
- Result of vacuum drying (Additional Information) [1]: remained the same after vacuum
- XRPD Results after vacuum drying ([1]; vacuum at ~60° C. for ~2 days): No changes were observed in the XRPD pattern; also recorded: physically stable; also recorded: Form E
- Hygroscopicity (moisture sorption data are consistent with) [3]: limited hygroscopic material
- Weight loss upon equilibration at ~5% RH [3]: ~0.2 wt %
- Weight gain upon increase in relative humidity [3]: 0.6 wt %
- Weight loss upon decrease in relative humidity [3]: ~0.6 wt %

SMILES: Cc1cc(Nc2nc(C(O)c3ccc(F)cc3)nc3ccccc23)n[nH]1 (centres unmarked) [Forms A + B, (4-fluorophenyl)(4-(5-methyl-1H-pyrazol-3-ylamino)quinazolin-2-yl)methanol]
- XRPD Results after vacuum drying ([1]; vacuum at ~60° C. for ~1 day): Form A +
- XRPD Results after vacuum drying ([1]; vacuum at ~60° C. for ~2 days, listed as Forms A and B): primarily consistent with Form A with a minor amount of Form B
